Data from publication PMC3930709, “Selective Activation of hTRPV1 by N-Geranyl Cyclopropylcarboxamide, an Amiloride-Insensitive Salt Taste Enhancer” (PLoS ONE, 2014).

Columns and labels:
Format in all cases: cell-based
αβγ hENaC = biological target: T1, αβγ hENaC (Homo sapiens, UniProt P37088+P51168+P51170); assay: Membrane potential assay (FMP dye) on αβγ hENaC-expressing cells; details: continuous presence of Bz (0.01 µM)
T1 construct: GFP; host or cells: HEK293T
T1 sequence (P37088 1-669): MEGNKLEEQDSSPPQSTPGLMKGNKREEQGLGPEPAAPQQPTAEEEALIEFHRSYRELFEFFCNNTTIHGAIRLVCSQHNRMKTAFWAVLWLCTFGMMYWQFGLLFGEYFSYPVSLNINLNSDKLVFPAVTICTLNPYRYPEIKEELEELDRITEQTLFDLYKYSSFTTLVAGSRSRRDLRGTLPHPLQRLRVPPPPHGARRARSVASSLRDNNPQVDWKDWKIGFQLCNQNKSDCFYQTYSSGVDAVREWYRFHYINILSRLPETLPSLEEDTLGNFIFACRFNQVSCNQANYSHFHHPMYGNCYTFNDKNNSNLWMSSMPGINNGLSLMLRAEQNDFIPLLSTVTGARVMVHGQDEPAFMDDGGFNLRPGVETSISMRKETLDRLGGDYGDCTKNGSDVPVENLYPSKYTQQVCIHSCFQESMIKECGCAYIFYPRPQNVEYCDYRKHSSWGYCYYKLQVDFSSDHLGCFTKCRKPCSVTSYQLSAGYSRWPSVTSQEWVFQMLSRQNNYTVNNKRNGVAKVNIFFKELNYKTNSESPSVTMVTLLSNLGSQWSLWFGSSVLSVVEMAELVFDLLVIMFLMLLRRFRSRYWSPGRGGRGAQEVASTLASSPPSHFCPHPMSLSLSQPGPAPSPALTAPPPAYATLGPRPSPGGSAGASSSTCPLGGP
T1 sequence (P51168 1-640): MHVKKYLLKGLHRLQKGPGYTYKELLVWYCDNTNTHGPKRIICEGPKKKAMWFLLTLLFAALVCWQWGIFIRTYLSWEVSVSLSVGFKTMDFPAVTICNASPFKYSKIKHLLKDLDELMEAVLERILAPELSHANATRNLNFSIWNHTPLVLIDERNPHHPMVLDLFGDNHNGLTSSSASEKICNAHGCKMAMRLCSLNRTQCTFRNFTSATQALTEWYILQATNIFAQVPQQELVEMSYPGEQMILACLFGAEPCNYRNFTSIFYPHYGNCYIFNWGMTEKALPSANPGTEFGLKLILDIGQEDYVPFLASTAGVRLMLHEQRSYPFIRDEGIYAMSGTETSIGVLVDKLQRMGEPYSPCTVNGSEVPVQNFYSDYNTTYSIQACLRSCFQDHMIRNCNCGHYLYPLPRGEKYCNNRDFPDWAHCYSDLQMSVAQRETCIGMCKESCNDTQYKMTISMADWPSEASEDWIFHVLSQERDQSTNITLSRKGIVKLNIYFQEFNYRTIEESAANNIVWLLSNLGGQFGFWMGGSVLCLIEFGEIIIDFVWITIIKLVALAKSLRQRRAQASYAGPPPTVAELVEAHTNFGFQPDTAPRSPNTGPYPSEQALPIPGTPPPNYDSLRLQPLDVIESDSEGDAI
T1 sequence (P51170 1-649): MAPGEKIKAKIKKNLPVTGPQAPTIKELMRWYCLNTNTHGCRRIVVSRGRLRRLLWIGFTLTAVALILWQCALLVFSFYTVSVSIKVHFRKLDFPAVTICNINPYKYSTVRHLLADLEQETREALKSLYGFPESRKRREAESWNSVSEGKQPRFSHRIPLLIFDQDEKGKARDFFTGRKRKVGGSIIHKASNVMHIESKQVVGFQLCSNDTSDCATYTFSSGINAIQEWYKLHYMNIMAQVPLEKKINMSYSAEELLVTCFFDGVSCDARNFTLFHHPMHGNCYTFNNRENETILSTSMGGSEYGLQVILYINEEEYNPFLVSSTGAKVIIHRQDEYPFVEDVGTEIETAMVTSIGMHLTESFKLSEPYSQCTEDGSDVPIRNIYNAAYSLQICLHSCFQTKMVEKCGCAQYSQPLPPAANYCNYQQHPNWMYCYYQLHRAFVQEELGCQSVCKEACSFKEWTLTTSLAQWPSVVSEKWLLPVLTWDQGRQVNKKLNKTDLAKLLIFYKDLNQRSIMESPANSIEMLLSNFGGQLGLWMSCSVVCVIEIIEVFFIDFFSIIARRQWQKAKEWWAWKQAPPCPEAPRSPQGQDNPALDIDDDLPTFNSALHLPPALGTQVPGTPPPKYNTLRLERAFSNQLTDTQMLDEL
Protocol: The α, β, and γ hENaC subunits were cloned from OriGene (Rockville, MD; GenBank accession number […] for SCNN1A, NM_000336 for SCNN1B and NM_001039 for SCNN1G). α, GFP-tagged β, and γ hENaC were cloned into a CMV promoter-based vector and expressed constitutively. The HEK293T cells were seeded onto a 35 mm dish and transfected with α, β, and γ hENaC expression plasmid using Lipofectamine 2000 (Invitrogen). Then, transfected cells were seeded onto 96-well black-wall plate for 18–26 h prior to their use in an experiment.
hENaC-expressing cells were characterized using FLIPER Membrane Potential (FMP) Assay Kit (Molecular Devices Corporation, Sunnyvale, CA, USA). In this assay, changes in the membrane potential were quantified via fluorescence change caused by FMP dye. The hENaC-expressing cells were washed with assay buffer (containing: 130 mM NaCl, 10 mM glucose, 5 mM KCl, 2 mM CaCl2, 1.2 mM MgCl2, and 10 mM HEPES, pH adjusted to 7.4 with NaOH) and subsequently, FMP blue-dye in assay buffer was loaded into the cells at room temperature for 30 min. After dye treatment, S3969 (0.03−10 µM), an ENaC agonist, S3969+Bz (ENaC antagonist, 0.01 µM), or NGCC (0.01−10 µM) was treated to hENaC-expressing cells. The plate was assayed in a FlexStation III plate reader (Molecular devices Corporation) by excitation at 530 nm and measuring the emission at 560 nm.

hTRPV1 [1] = biological target: T2, hTRPV1 (Homo sapiens, UniProt Q8NER1); assay: Ca2+ imaging (Fura-2 AM) of hTRPV1-expressing HEK293T cells; details: NGCC 30 µM; RR 30 µM, CPZ 1 µM
T2 construct: expressed in transfected cells; host or cells: HEK293T
T2 sequence (Q8NER1 whole entry): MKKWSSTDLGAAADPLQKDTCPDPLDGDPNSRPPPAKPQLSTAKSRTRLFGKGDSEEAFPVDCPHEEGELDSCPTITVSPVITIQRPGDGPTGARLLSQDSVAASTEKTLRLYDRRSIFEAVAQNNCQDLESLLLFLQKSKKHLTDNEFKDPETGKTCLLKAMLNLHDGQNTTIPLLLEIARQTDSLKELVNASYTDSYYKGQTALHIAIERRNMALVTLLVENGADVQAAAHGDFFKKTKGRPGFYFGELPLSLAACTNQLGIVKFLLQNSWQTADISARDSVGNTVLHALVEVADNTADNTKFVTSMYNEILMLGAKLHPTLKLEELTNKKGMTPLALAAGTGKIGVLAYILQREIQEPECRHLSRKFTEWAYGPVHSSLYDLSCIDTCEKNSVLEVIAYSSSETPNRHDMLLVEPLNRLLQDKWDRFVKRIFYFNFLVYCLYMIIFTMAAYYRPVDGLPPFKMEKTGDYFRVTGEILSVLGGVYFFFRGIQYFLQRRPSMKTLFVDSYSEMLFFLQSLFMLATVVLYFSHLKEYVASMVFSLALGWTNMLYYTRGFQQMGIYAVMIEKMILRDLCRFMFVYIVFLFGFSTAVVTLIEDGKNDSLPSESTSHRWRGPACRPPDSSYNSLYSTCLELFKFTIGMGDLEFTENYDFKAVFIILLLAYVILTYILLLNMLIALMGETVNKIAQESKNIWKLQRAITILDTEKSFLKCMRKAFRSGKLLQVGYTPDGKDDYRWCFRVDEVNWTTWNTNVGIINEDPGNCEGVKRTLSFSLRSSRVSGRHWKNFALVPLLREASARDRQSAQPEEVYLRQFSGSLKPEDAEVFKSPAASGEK
Protocol: hTRPV1 was constructed by amplification of the hTRPV1 region (NCBI accession number: NG_029716.1) and cloned into pEAK10 vector (Edge Biosystems, Gaithersburg, MD, USA). The hTRPV1 construct was amplified by PCR and the nucleotide sequence of the hTRPV1 gene was confirmed by sequencing with an ABI 3130 DNA genetic analyzer (Applied Biosystems, Foster City, CA, USA). […] After 6 h, transfected cells were seeded onto 96-well black-wall plate (BD Falcon Labware, Franklin Lakes, NJ, USA) for 18-26 h prior to their use in an experiment. Mock-transfected HEK293T cells, hTRPV1-expressing HEK293T cells, non-hTRPA1-expressing Flp-In 293 cells, and hTRPA1-expressing Flp-In 293 cells grown in 96-well black-wall plates were rinsed with assay buffer (130 mM NaCl, 10 mM glucose, 5 mM KCl, 2 […]2, 1.2 mM MgCl2, and 10 mM HEPES, pH 7.4) and loaded with 5 μM Fura-2 AM (Invitrogen) for 30 min at 27°C. […] The fluorescence intensities of Fura-2 excited at 340 and 380 nm were simultaneously measured at 510 nm using a computer-controlled filter changer (Lambda DG4; Sutter, San Rafael, CA, USA), an Andor Luca CCD camera (Andor Technology, Belfast, UK), and an inverted fluorescence microscope (IX-71; Olympus, Tokyo, Japan). Intracellular calcium images were recorded every 3-s for 60-s and analyzed using MetaFluor software (Molecular Devices, Sunnyvale, CA, USA).

hTRPV1 [2] = biological target: T2, hTRPV1; assay: Measurement of Ca2+ influx (Fluo-4 AM, FlexStation III) in hTRPV1-expressing cells; details: RR 30 µM or CPZ 1 µM added with agonist
Protocol: hTRPV1 was constructed by amplification of the hTRPV1 region (NCBI accession number: NG_029716.1) and cloned into pEAK10 vector (Edge Biosystems, Gaithersburg, MD, USA). The hTRPV1 construct was amplified by PCR and the nucleotide sequence of the hTRPV1 gene was confirmed by sequencing with an ABI 3130 DNA genetic analyzer (Applied Biosystems, Foster City, CA, USA). […] After 6 h, transfected cells were seeded onto 96-well black-wall plate (BD Falcon Labware, Franklin Lakes, NJ, USA) for 18–26 h prior to their use in an experiment. The ligand-induced changes on cytosolic Ca^2+ level were monitored by a FlexStation III microplate reader (Molecular Devices). Fluo-4 AM (5 µM, Molecular Probes, Eugene, OR, USA) in assay buffer was loaded to the cells in 96-well black-wall plates for 30 min at 27°C. After dye treatment, each chemical was added to each well at 17 s and changes on intracellular Ca^2+ level were monitored by relative fluorescence units (ΔRFU, Ex = 485 nm; Em = 516 nm) for 120 s. […] The responses from at least three wells receiving the same stimulus were averaged. Plots of amplitude versus concentration were fitted using the Hill equation.

hTRPV1 [3] = biological target: T2, hTRPV1; assay: Whole-cell patch clamp recording, hTRPV1-expressing HEK293T cells
Protocol: Mouse ASIC1a (mASIC1a) was a kind gift from John A. Wemmie (University of Iowa, IA, USA). For electrophysiological experiments, HEK293T cells were cultured in DMEM supplemented with 10% FBS and 0.2% penicillin/streptomycin and transiently transfected using Lipofectamine 2000 (Invitrogen) with various cDNAs. For TRPV1 channel expression, cells were transfected with hTRPV1, for ASIC1a homomeric channel expression, cells were transfected with mASIC1a. When needed, 0.1–0.2 µg of cDNA encoding tetrameric red fluorescence protein (DsRed) was co-transfected with the cDNA as a marker for successfully transfected cells. For non-transfected cells, cells were transfected with 0.1–0.2 µg of cDNA encoding DsRed alone. The next day, cells were plated onto poly-L-lysine-coated coverslip chips, and fluorescent cells were studied within 1–2 days.
The whole-cell configuration was used to voltage-clamp at room temperature (22–25°C). Electrodes pulled from glass micropipette capillaries (Sutter Instrument) had resistances of 2–2.5 MΩ, and series resistance errors were compensated >60%. Fast and slow capacitances were compensated before the application of test-pulse. Recordings were performed using aHEKAEPC-10 amplifier with pulse software (HEKA Elektronik). The pipette solution contained: 140 mM KCl, 5 mM MgCl2, 10 mM HEPES, 0.1 mM 1,2-bis(2-aminophenoxy) ethane N,N,N’,N’-tetraacetic acid(BAPTA), 3 mM Na2ATP, and 0.1 mM Na3GTP, adjusted to pH 7.4 with KOH. The external Ringer’s solution used for recording TRPV1 and TRPA1 currents contained: 150 mM NaCl, 5 mM KCl, 1 mM MgCl2, 2 mM EGTA, 10 mM Glucose, and 10 mM HEPES, adjusted to pH 7.4 with NaOH. TRPV1 and TRPA1 currents were recorded by holding the cell at −80 mV. The external Ringer’s solution used for recording ASIC current contained: 160 mM NaCl, 5 mM KCl, 1 mM MgCl2, 2 mM CaCl2, and 10 mM HEPES, adjusted to pH 7.4 with tetramethylammonium hydroxide. For acidic solution of pH 6.0, HEPES was replaced with MES. ASIC currents were recorded by holding the cell at −70 mV. Reagents were obtained as follows: BAPTA, Na2ATP, Na3GTP, EGTA, and tetramethylammonium hydroxide (Sigma), HEPES (Calbiochem), MES (Alfa Aesar), and other chemicals (Merck).

[4] = first pulse normalized to 1.0, n = 4

| inhibition of S3969 activity on αβγ hENaC-expressing cells (αβγ hENaC) | block of NGCC-induced Ca2+ influx in hTRPV1-expressing cells (hTRPV1 [1]) | block of capsaicin-induced current (hTRPV1 [3]; CPZ 1 µM preincubation 20 seconds, capsaicin 100 nM) | normalized current density of NGCC-induced current after wash out of CPZ (hTRPV1 [3]; [4]) | normalized current density of NGCC-induced current under CPZ (hTRPV1 [3]; [4]) | Compound | block of capsaicin- and NGCC-induced hTRPV1 activation (dose-response) (hTRPV1 [2]) |
| --- | --- | --- | --- | --- | --- | --- |
| No effect of S3969 was observed | – | – | – | – | NC(=NCc1ccccc1)NC(=O)c1nc(Cl)c(N)nc1N [Bz, benzamil] | – |
| – | blocked NGCC activity to baseline levels | blocked | 0.61±0.12 | 0.12±0.05 | Oc1cc2c(cc1O)CN(C(=S)NCCc1ccc(Cl)cc1)CCC2 [CPZ, capsazepine] | blocked the effects of capsaicin and NGCC |
